Reference: article PMC7927096, “Dipeptides of S-Substituted Dehydrocysteine as Artzyme Building Blocks: Synthesis, Complexing Abilities and Antiproliferative Properties” (International Journal of Molecular Sciences, 2021)
Structures can show the parent of a compound that is named as a salt.

Columns and labels:
[1] = Potentiometric titration, protonation constants of free ligands; type: physicochemical; conditions: 298 K, ionic strength 0.1 M KCl; for protonation constant logβ, H2L / protonation constant logβ, H3L / protonation constant logβ, HL: ± SD
Method: (§1) The pH-metric measurements were performed on Metrohm 905 Titrando system equipped with combined Biotrop® electrode. The titrant was 0.1 M KOH (Merck, Germany) freed of CO2 by bubbling Ar gas for 3 h. The electrode calibration was performed before each titration. The volume of all the samples was 1.5 mL and the measurements were carried out at a range of pH of 2.5–11.0 in thermostated vessels at 298 K in an inert atmosphere of Ar gas. The ligands 9a and 10a were diluted in hydrochloric acid (pH = 2.5), prepared from 37% HCl (Sigma-Aldrich, Poland). Their concentration was set up at a range of 1.0–2.0 × 10^−3 M and the ionic strength of 0.1 M was achieved by the addition of KCl (Sigma-Aldrich, Poland). The ligand-metal ion systems were prepared by addition of CuCl2 (Sigma-Aldrich, Poland). stock solutions to reach final ligand to metal ratio (nL: nCu^2+) being 2:1 or 1:1.
(§2) The protonation (βi = [HiL]/[H^+]^i[L]), stability constants (βpqr = [MpHqLr]/[M]^p[H]^q[L]^r), and stoichiometry of complexes were calculated using the HYPERQUAD program. The distribution species plots were made by HySS program. The standard deviations were computed for all the constants and indicated the presence of only random errors, which was a good evidence of the presence of each species in the equilibrium.

[2] = Potentiometric titration and spectroscopy, stability constants of Cu(II)-complexes; type: physicochemical; conditions: for Cu(II) complexing ability (in words): 10a versus 9a below pH 5, 9a versus Gly(Z)Phe, nL:nCu(II) = 1:1
Method: as §1, §2
The UV-Vis absorption measurements were recorded on Varian Carry 50 Bio spectrophotometer. All spectra were collected in a quartz cuvette with 1 cm path length at 298 K. The spectral range was 300–800 nm with resolution 0.1 nm. The molar extinction coefficients (ε [M^−1cm^−1]) were calculated for each spectrum at a wavelength of maximum absorption.
The Circular Dichroism spectra (CD) and Magnetic Circular Dichroism (MCD) were measured on a JASCO J 600 spectropolarimeter in a range of 230–800 nm with 0.1 nm resolution. The optical length of the quartz cuvettes was 10 mm. The molar circular dichroism coefficient (Δε [M^−1cm^−1]) was calculated for each spectrum.
The Electron Paramagnetic Resonance (EPR) spectra were recorded on a Brucker ESP 300E spectrometer at X-band frequency (9.5 GHz) at 77 K obtained by the use of liquid nitrogen. The procedure of sample preparation for spectroscopic measurements was the same as in potentiometric titration. The EPR samples were protected by adding 30% of ethylene glycol (Sigma-Aldrich, Poland). The pH of the samples was determined by adding a small quantity of a concentrated solution of KOH (Merck, Germany) to achieve the desired value and controlled by Mettler Toledo pH-meter equipped with combined electrode InLab®Micro. The simulation of the EPR spectrum was performed by the Hyperfine Spectrum program written by W.R. Hagen.

[3] = tested on: ten diverse human cancer cells lines and murine non-tumorigenic cell line (Balb/3T3); assay: Antiproliferative screen, whole cell line panel (statements in words); type: cell-based; conditions: SRB, across cell lines
From the text: (§3) Ten different human cancer cell lines (including drug-resistant sublines) and one non-tumorigenic murine fibroblasts cell line were used to determine antiproliferative activity of the tested compounds. The MDA-MB-231 (breast adenocarcinoma), UM-UC-3 (urinary bladder transitional cell carcinoma), LoVo (colorectal adenocarcinoma), LoVo^Dx (colorectal adenocarcinoma, doxorubicin-resistant) and Balb/3T3 (non-tumorigenic murine fibroblasts) were purchased from the American Type Culture Collection (ATCC; Rockville, USA). The MCF-7 (breast adenocarcinoma) and A549 (lung carcinoma) were purchased from European Collection of Authenticated Cell Cultures (ECACC; Porton Down, UK). The UM-UC-3^CDDP, UM-UC-3^GEM, UM-UC-3^VBL, and UM-UC-3^CDDP/GEM cell lines were established at Hirszfeld Institute of Immunology and Experimental Therapy of the Polish Academy of Sciences (HIIET, PAS, Wroclaw, Poland) by the continuous exposure to the increasing concentrations of corresponding cytostatics.
(§4) The Balb/3T3 and UM-UC-3 were cultured in Dulbecco’s Modified Eagle Medium (DMEM; Life Technologies, UK) supplemented with 10% (v/v) fetal bovine serum (FBS; GE Healthcare HyClone, Logan, USA) and 2 mM L-glutamine (Sigma-Aldrich, Poznań, Poland). The UM-UC-3^CDDP, UM-UC-3^GEM, UM-UC-^3VBL, and UM-UC-3^CDDP/GEM culture media were additionally supplemented with appropriate cytostatics: 2.5 µg/mL cisplatin (Accord, Warsaw, Poland) for UM-UC-3^CDDP, 500 nM gemcitabine (Sigma-Aldrich, Poznań, Poland) for UM-UC-3^GEM, 5 nM vinblastine (Sigma-Aldrich, Poznań, Poland) for UM-UC-3VBL, 2.5 µg/mL cisplatin and 500 nM gemcitabine for UM-UC-3^CDDP/GEM. The LoVo cell line was cultured in F-12K Nutrient Mixture (F-12K; Corning, Corning, USA), supplemented with 10% (v/v) FBS. LoVo^Dx culture medium was additionally supplemented with doxorubicin 100 ng/mL (Accord, Warsaw, Poland). The MCF-7 cell line was cultured in Eagle’s medium (HIIET, PAS, Wroclaw, Poland), supplemented with 10% (v/v) FBS (Sigma-Aldrich, Poznań, Poland), 2 mM L-glutamine, MEM non-essential amino acid solution 1% (v/v) (Sigma-Aldrich, Poznań, Poland), insulin 8 µg/mL (Sigma-Aldrich, Poznań, Poland). The MDA-MB-231 cell line was cultured in RPMI 1640 (HIIET, PAS, Wroclaw, Poland), supplemented with 10% (v/v) FBS (Sigma-Aldrich, Poznań, Poland) and 2 mM L-glutamine. The A 549 cell line was cultured in OptiMEM (HIIET, PAS, Wroclaw, Poland), supplemented with 5% (v/v) FBS (GE Healthcare HyClone, Logan, USA) and 2 mM L-glutamine. All culture media were supplemented with antibiotics—100 μg/mL streptomycin (Polfa Tarchomin, Warsaw, Poland) and 100 U/mL penicillin (Sigma-Aldrich, Poznań, Poland).
(§5) All cell lines were cultured in a humidified atmosphere at 37 °C with 5% (v/v) CO2 and passaged twice a week using EDTA-Trypsin solution (pH 8; HIIET, Wroclaw, Poland) as a detachment agent.
(§6) All compounds, for antiproliferative activity assessment, were stored at […] as 50 mM solutions in dimethyl sulfoxide (DMSO; Avantor Performance Materials, Gliwice, Poland).
(§7) The cells were seeded on 384-well plates (Greiner Bio One, Kremsmünster, Austria) at 1 × 10^3 cells/well density for A 549, UM-UC-3, UM-UC-3^CDDP, UM-UC-3^GEM, UM-UC-3^CVBL and UM-UC-3^CDDP/GEM cell lines. Other cell lines were seeded at 2 × 10^3 cells/well. After overnight incubation, compounds were applied at eight concentrations (ranging from 100 µM to 0.03 µM). After 72 h incubation, the sulforhodamine B (SRB) assay based on Skehan et al. was carried out with slight modifications. In brief, 50 µL of the medium was replaced with 30 µL/well of 25% (w/v) trichloroacetic acid (Avantor Performance Materials, Gliwice, Poland). After 1 h incubation at room temperature, plates were washed three times with tap water, and 20 µL of 0.1% (w/v) solution of sulforhodamine B (Sigma-Aldrich, Poznan, Poland) in 1% (v/v) acetic acid (Avantor Performance Materials, Gliwice, Poland) was added to each well. […]

[4] = tested on: A549 (lung carcinoma); assay: Antiproliferative activity, sulforhodamine B assay; type: cell-based, human; conditions: Homo sapiens, A549; SRB, 72 h incubation; read-out: IC50 ± SD, A-549
From the text: as §3, §4, §5, §6, §7

[5] = tested on: LoVo (colorectal adenocarcinoma); assay: Antiproliferative activity, sulforhodamine B assay; type: cell-based, human; conditions: Homo sapiens, LoVo; SRB, 72 h incubation; read-out: IC50 ± SD, LoVo
From the text: as §3, §4, §5, §6, §7

[6] = tested on: LoVo^DX (colorectal adenocarcinoma, doxorubicin-resistant); assay: Antiproliferative activity, sulforhodamine B assay; type: cell-based, human; conditions: Homo sapiens, LoVo/DX, SRB, 72 h incubation, read-out: IC50 ± SD, LoVo^DX
From the text: as §3, §4, §5, §6, §7

[7] = tested on: MCF-7 (breast adenocarcinoma); assay: Antiproliferative activity, sulforhodamine B assay; type: cell-based, human; conditions: Homo sapiens, MCF7; SRB, 72 h incubation; read-out: IC50 ± SD, MCF-7
From the text: as §3, §4, §5, §6, §7

[8] = tested on: MDA-MB-231 (breast adenocarcinoma); assay: Antiproliferative activity, sulforhodamine B assay; type: cell-based, human; conditions: Homo sapiens, MDA-MB-231; SRB, 72 h incubation; read-out: IC50 ± SD, MDA-MB-231
From the text: as §3, §4, §5, §6, §7

[9] = tested on: Balb/3T3 (non-tumorigenic murine fibroblasts); assay: Antiproliferative activity, sulforhodamine B assay; type: cell-based; conditions: Mus musculus, BALB/3T3; SRB, 72 h incubation; non-tumorigenic line; read-out: IC50 ± SD, Balb/3T3
From the text: as §3, §4, §5, §6, §7

[10] = 298 K, ionic strength 0.1 M KCl
[11] = 298 K, ionic strength 0.1 M KCl, ± SD

| SMILES | protonation constant logK, H3L [1] | protonation constant logK, HL [1] | protonation constant logβ, H2L [1] | protonation constant logβ, H3L [1] | protonation constant logβ, HL [1] | Cu(II) complexing ability (in words) [2] | logK, Cu2L2H [2, 10] | logK, CuL [2, 10] | logK, CuL2H [2, 10] | logK, CuLH2 [2, 10] | stability constant logβ, Cu2L2H [2, 11] | stability constant logβ, Cu2L2H-1 [2, 11] | stability constant logβ, CuL [2, 11] | stability constant logβ, CuL2 [2, 11] | stability constant logβ, CuL2H [2, 11] | stability constant logβ, CuLH2 [2, 11] | stability constant logβ, CuLH-1 [2, 11] | antiproliferative activity (in words) [3] | IC50 [4] | IC50 [7] | also measured |
| --- | --- | --- | --- | --- | --- | --- | --- | --- | --- | --- | --- | --- | --- | --- | --- | --- | --- | --- | --- | --- | --- |
| COC(=O)/C(=C/Sc1nc[nH]n1)NC(=O)[C@@H](N)Cc1ccccc1 [Compound 10a, HCl Phe-ΔCys(S-triazole)-OMe] | 6.85 | 10.42 | 18.53 ± 0.02 | 25.38 ± 0.02 | 10.42 ± 0.01 | significantly more effective binder of Cu(II) | 14.59 | 10.61 | 8.45 | 8.83 | 37.54 ± 0.06 | 22.95 ± 0.06 | 15.00 ± 0.01 | 20.37 ± 0.05 | 28.82 ± 0.11 | 23.83 ± 0.03 | 4.39 ± 0.03 | – | – | – | – |
| COC(=O)/C(=C/Sc1nc2c(N)ncnc2[nH]1)NC(=O)CNC(=O)OC(C)(C)C [Compound 6e, Boc-Gly-ΔCys(S-adenine)-OMe] | – | – | – | – | – | – | – | – | – | – | – | – | – | – | – | – | – | markedly lower, if any, activity | – | – | – |
| COC(=O)/C(=C/Sc1nc[nH]n1)NC(=O)CNC(=O)OC(C)(C)C [Compound 6a, Boc-Gly-ΔCys(S-triazole)-OMe] | – | – | – | – | – | – | – | – | – | – | – | – | – | – | – | – | – | markedly lower, if any, activity | – | – | – |
| COC(=O)/C(=C/Sc1nc[nH]n1)NC(=O)CN [Compound 9a, HCl Gly-ΔCys(S-triazole)-OMe] | 7.26 | 10.09 | 18.05 ± 0.01 | 25.31 ± 0.01 | 10.09 ± 0.01 | significantly more effective in Cu(II) coordination | 14.45 | 10.42 | 8.73 | 9.34 | 36.61 ± 0.03 | 22.16 ± 0.06 | 14.18 ± 0.01 | 20.06 ± 0.04 | 28.79 ± 0.04 | 23.52 ± 0.03 | 3.76 ± 0.04 | – | – | – | logK, CuL2 [2, 10]: 11.35; logK, CuL2H2 [2, 10]: 7.67; stability constant logβ, CuL2H2 [2, 11]: 36.46 ± 0.04; stability constant logβ, CuL2H-1 [2, 11]: 8.71 ± 0.07; corrected stability constant (logβ = logβCuLH2 − logβH2L) ([2]; CuH2L complex, equimolar conditions): 5.47; logβ* = logβCuL − logKHL ([2]; CuL species, independent of logKtriazole): 4.09 |
| COC(=O)/C(=C/Sc1nc2c(N)ncnc2[nH]1)NC(=O)[C@H](Cc1ccccc1)NC(=O)OC(C)(C)C [Compound 7e, Boc-Phe-ΔCys(S-adenine)-OMe] | – | – | – | – | – | – | – | – | – | – | – | – | – | – | – | – | – | markedly lower, if any, activity | > 100 µM | 101 ± 11.3 µM | IC50 [5]: 81.7 ± 12.4 µM; IC50 [6]: > 100 µM; IC50 [8]: 74.5 ± 7.7 µM; IC50 [9]: > 100 µM |
| COC(=O)/C(=C/Sc1nc2ccccc2s1)NC(=O)CN [Compound 9d, HCl Gly-ΔCys(S-benzothiazole)-OMe] | – | – | – | – | – | – | – | – | – | – | – | – | – | – | – | – | – | – | 33.4 ± 6.4 µM | > 100 µM | IC50 [8]: 56 ± 7.1 µM |
